According to patent US10414811B2, “Protease-resistant lipidated GLP-1 analogs” (MEDIMMUNE LIMITED, priority 2015, dated 2019):
Like-named read-outs stand apart in the source and are kept apart here. Numbered stars: 1 amine (or outer) side, 2 acyl side, 3 side chain; on linkers, the order of the positions; unused ones are H or OH. Square brackets hold non-standard residues; d marks the D form. Side chains are listed from the residue outwards. Peptide text beside a SMILES is read from it. * marks the point of attachment. C16 diacid = O=C(O)CCCCCCCCCCCCCCC(=O)*; γGlu = O=C(O)[C@H](CCC(=O)[*:2])N[*:1]; Palmitoyl = CCCCCCCCCCCCCCCC(=O)*; αMeF = C[C@](N)(Cc1ccccc1)C(=O)O; αMeK = C[C@](N)(CCCCN)C(=O)O; Lauroyl = CCCCCCCCCCCC(=O)*; αMeS = C[C@](N)(CO)C(=O)O; AEEA = NCCOCCOCC(=O)O; Aib = CC(C)(N)C(=O)O

Assays:
Format in all cases: cell-based
[1] = target: T1, human glucose-dependent insulinotropic peptide receptor (GIPR) (Homo sapiens, UniProt P48546); experiment: cAMP assay, human GIPR cells
T1 construct: expressed in transfected cells
T1 sequence (P48546 22-466): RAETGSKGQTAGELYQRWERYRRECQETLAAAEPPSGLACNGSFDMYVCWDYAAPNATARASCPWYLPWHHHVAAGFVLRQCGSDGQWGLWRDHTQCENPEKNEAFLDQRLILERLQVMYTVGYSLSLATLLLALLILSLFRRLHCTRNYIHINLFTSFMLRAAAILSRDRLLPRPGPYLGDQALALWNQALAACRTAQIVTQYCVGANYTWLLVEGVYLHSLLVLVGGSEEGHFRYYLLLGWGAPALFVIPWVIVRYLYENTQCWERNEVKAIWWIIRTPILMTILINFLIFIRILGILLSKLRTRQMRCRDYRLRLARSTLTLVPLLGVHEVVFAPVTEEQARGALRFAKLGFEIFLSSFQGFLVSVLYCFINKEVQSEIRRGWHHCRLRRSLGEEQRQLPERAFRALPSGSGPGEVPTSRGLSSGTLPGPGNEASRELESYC
Outline: (§1)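 Peptide-stimulated cAMP measured by two-step HTRF after a 30 min room-temperature incubation with receptor-expressing cells (hGLP-1R, hGIPR at 1×10^5 cells/ml; hGCGR at 2×10^5 cells/ml). Duplicate dilutions; EC50 from 4-parameter logistic fit of % Delta F.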

[2] = target: T2, human glucagon receptor (GCGR) (Homo sapiens, UniProt P47871); experiment: cAMP assay, human GCGR cells
T2 construct: expressed in transfected cells
T2 sequence (P47871 26-477): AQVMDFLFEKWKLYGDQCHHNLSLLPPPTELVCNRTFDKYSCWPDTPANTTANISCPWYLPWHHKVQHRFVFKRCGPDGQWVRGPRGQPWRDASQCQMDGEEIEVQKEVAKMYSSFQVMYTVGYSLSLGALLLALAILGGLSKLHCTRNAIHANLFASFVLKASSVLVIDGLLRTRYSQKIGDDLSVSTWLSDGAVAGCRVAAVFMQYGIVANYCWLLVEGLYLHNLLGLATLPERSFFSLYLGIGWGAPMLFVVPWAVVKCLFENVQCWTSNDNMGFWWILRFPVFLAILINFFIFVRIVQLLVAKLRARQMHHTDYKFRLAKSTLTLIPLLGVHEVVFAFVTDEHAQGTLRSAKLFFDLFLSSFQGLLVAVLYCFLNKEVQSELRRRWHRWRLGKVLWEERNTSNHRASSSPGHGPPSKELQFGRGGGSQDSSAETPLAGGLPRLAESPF
Outline: as §1

[3] = target: T3, human GLP-1 receptor (GLP-1R) (Homo sapiens, UniProt P43220); experiment: cAMP assay, human GLP-1R cells
T3 construct: expressed in transfected cells
T3 sequence (P43220 24-463): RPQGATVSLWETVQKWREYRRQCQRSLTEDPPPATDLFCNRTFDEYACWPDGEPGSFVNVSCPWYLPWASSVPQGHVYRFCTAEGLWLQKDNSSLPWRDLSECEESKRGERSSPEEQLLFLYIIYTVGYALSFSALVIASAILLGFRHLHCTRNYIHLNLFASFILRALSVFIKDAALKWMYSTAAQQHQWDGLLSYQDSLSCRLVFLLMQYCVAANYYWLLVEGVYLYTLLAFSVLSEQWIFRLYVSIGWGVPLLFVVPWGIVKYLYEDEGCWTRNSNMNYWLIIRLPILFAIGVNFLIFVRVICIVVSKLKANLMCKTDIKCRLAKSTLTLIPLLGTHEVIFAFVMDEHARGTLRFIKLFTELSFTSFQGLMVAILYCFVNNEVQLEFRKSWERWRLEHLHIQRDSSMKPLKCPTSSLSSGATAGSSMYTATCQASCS
Outline: as §1

[4] = cAMP assay, first determination (n1), read-out: Primary assay EC50 GIP-R (n1)
[5] = cAMP assay, second determination (n2), read-out: Primary assay EC50 GIP-R (n2)
[6] = cAMP assay, first determination (n1), read-out: Primary assay EC50 Gluc-R (n1)
[7] = cAMP assay, second determination (n2), read-out: Primary assay EC50 Gluc-R (n2)
[8] = cAMP assay, first determination (n1), read-out: Primary assay EC50 GLP-1R n1
[9] = cAMP assay, second determination (n2), read-out: Primary assay EC50 GLP-1R n2
[10] = mean of n1 and n2, read-out: Mean pM GLP-1R
[11] = tris-lipidated peptides, mean of n1 and n2, read-out: Primary assay EC50 Mean pM GLP-1R
[12] = tris-lipidated peptides, replicate n1, read-out: Primary assay EC50 GLP-1R n1
[13] = tris-lipidated peptides, replicate n2, read-out: Primary assay EC50 GLP-1R n2

Row | EC50 [1, 4] [nM] | EC50 [1, 5] [nM] | EC50 [2, 6] [nM] | EC50 [2, 7] [nM] | EC50 [3, 8] [pM] | EC50 [3, 9] [pM] | EC50 [3, 10] [pM] | EC50 [3, 11] [pM] | EC50 [3, 12] [pM] | EC50 [3, 13] [pM] | SMILES | other results
1 | ≥ 28 | ≥ 28 | ≥ 28 | ≥ 28 | 130 | 160 | 146 | – | – | – | CCCCCCCCCCCCCCCC(=O)N[C@@H](CCC(=O)NCCCC[C@H](NC(=O)[C@@H](NC(=O)[C@](C)(Cc1ccccc1)NC(=O)[C@H](C)NC(=O)[C@@H](NC(=O)[C@](C)(Cc1ccccc1)NC(=O)[C@H](CCC(=O)O)NC(=O)[C@](C)(CCCCN)NC(=O)[C@H](C)NC(=O)[C@H](C)NC(=O)[C@H](CCC(=O)O)NC(=O)CNC(=O)[C@H](CCC(=O)O)NC(=O)[C@H](CC(C)C)NC(=O)[C@](C)(Cc1ccccc1)NC(=O)[C@H](CO)NC(=O)[C@](C)(CO)NC(=O)[C@@H](NC(=O)[C@H](CC(=O)O)NC(=O)[C@H](CO)NC(=O)[C@@H](NC(=O)[C@](C)(Cc1ccccc1)NC(=O)[C@H](CO)NC(=O)CNC(=O)[C@H](CCC(=O)O)NC(=O)C(C)(C)NC(=O)[C@@H](N)Cc1c[nH]cn1)[C@@H](C)O)C(C)C)[C@@H](C)CC)C(C)C)C(=O)N[C@@](C)(CCCCN)C(=O)NCC(=O)NCC(N)=O)C(=O)O [compound 73] (H-H[Aib]EGS[αMeF]TSDV[αMeS]S[αMeF]LEGEAA[αMeK]E[αMeF]IA[αMeF]VK([γGlu-Palmitoyl])[αMeK]GG-NH2) | –
2 | ≥ 27 | ≥ 27 | ≥ 27 | ≥ 27 | 280 | 230 | 254 | – | – | – | CC[C@H](C)[C@H](NC(=O)[C@](C)(Cc1ccccc1)NC(=O)[C@H](CCC(=O)O)NC(=O)[C@H](CCCCNC(=O)CCCCCNC(=O)CCCCCNC(=O)CCCCCCCCCCCCCCCCC(=O)O)NC(=O)[C@H](C)NC(=O)[C@H](C)NC(=O)[C@H](CCC(=O)O)NC(=O)CNC(=O)[C@H](CCC(=O)O)NC(=O)[C@H](CC(C)C)NC(=O)[C@](C)(Cc1ccccc1)NC(=O)[C@H](CO)NC(=O)[C@](C)(CO)NC(=O)[C@@H](NC(=O)[C@H](CC(=O)O)NC(=O)[C@H](CO)NC(=O)[C@@H](NC(=O)[C@](C)(Cc1ccccc1)NC(=O)[C@H](CO)NC(=O)CNC(=O)[C@H](CCC(=O)O)NC(=O)C(C)(C)NC(=O)[C@@H](N)Cc1c[nH]cn1)[C@@H](C)O)C(C)C)C(=O)N[C@@H](C)C(=O)N[C@@](C)(Cc1ccccc1)C(=O)N[C@H](C(=O)N[C@H](C(=O)N[C@@](C)(CCCCN)C(=O)NCC(=O)NCC(N)=O)C(C)C)C(C)C [compound 159] | –
3 | – | – | – | – | – | – | – | 31.3 | 26 | 36.5 | CCCCCCCCCCCC(=O)N[C@@H](CCC(=O)NCCOCCOCC(=O)NCCOCCOCC(=O)NCCCC[C@H](NC(=O)[C@H](C)NC(=O)[C@@H](NC(=O)[C@H](Cc1ccccc1)NC(=O)[C@H](CCCCNC(=O)COCCOCCNC(=O)COCCOCCNC(=O)CC[C@H](NC(=O)CCCCCCCCCCC)C(=O)O)NC(=O)[C@](C)(CCCCN)NC(=O)[C@H](C)NC(=O)[C@H](C)NC(=O)[C@H](CCC(=O)O)NC(=O)CNC(=O)[C@H](CCC(=O)O)NC(=O)[C@H](CCCCNC(=O)COCCOCCNC(=O)COCCOCCNC(=O)CC[C@H](NC(=O)CCCCCCCCCCC)C(=O)O)NC(=O)[C@H](Cc1ccc(O)cc1)NC(=O)[C@H](CO)NC(=O)[C@](C)(CO)NC(=O)[C@@H](NC(=O)[C@H](CC(=O)O)NC(=O)[C@H](CO)NC(=O)[C@@H](NC(=O)[C@](C)(Cc1ccccc1)NC(=O)[C@H](CO)NC(=O)CNC(=O)[C@H](CCC(=O)O)NC(=O)C(C)(C)NC(=O)[C@@H](N)Cc1c[nH]cn1)[C@@H](C)O)C(C)C)[C@@H](C)CC)C(=O)N[C@H](C(=O)N[C@H](C(=O)N[C@@H](CCC(=O)O)C(=O)NCC(=O)NCC(N)=O)C(C)C)C(C)C)C(=O)O [compound 470] (H-H[Aib]EGS[αMeF]TSDV[αMeS]SYK([AEEA-AEEA-γGlu-Lauroyl])EGEAA[αMeK]K([AEEA-AEEA-γGlu-Lauroyl])FIAK([AEEA-AEEA-γGlu-Lauroyl])VVEGG-NH2; N-terminus assumed) | EC50 ([1]; tris-lipidated peptides, second replicate, read-out: Primary assay EC50 GIP-R (n2)): 20 nM; EC50 ([2]; tris-lipidated peptides, second replicate, read-out: Primary assay EC50 Gluc-R (n2)): 20 nM
4 | – | – | – | – | – | – | – | 244 | 229 | 258 | CCCCCCCCCCCC(=O)N[C@@H](CCC(=O)NCCOCCOCC(=O)NCCOCCOCC(=O)NCCCC[C@H](NC(=O)[C@H](CCC(=O)O)NC(=O)[C@H](CCCCNC(=O)COCCOCCNC(=O)COCCOCCNC(=O)CC[C@H](NC(=O)CCCCCCCCCCC)C(=O)O)NC(=O)[C@H](Cc1ccc(O)cc1)NC(=O)[C@H](CO)NC(=O)[C@](C)(CO)NC(=O)[C@@H](NC(=O)[C@H](CC(=O)O)NC(=O)[C@H](CO)NC(=O)[C@@H](NC(=O)[C@](C)(Cc1ccccc1)NC(=O)[C@H](CO)NC(=O)CNC(=O)[C@H](CCC(=O)O)NC(=O)C(C)(C)NC(=O)[C@@H](N)Cc1c[nH]cn1)[C@@H](C)O)C(C)C)C(=O)N[C@@H](CCC(=O)O)C(=O)N[C@@H](C)C(=O)N[C@@H](C)C(=O)N[C@@](C)(CCCCN)C(=O)N[C@@H](CCC(=O)O)C(=O)N[C@@H](Cc1ccccc1)C(=O)N[C@H](C(=O)N[C@@H](C)C(=O)N[C@@H](Cc1ccccc1)C(=O)N[C@@H](CCCCNC(=O)COCCOCCNC(=O)COCCOCCNC(=O)CC[C@H](NC(=O)CCCCCCCCCCC)C(=O)O)C(=O)N[C@H](C(=O)N[C@@H](CCC(=O)O)C(=O)NCC(=O)NCC(N)=O)C(C)C)[C@@H](C)CC)C(=O)O [compound 483] (H-H[Aib]EGS[αMeF]TSDV[αMeS]SYK([AEEA-AEEA-γGlu-Lauroyl])EK([AEEA-AEEA-γGlu-Lauroyl])EAA[αMeK]EFIAFK([AEEA-AEEA-γGlu-Lauroyl])VEGG-NH2; N-terminus assumed) | EC50 ([1]; tris-lipidated peptides, first replicate, read-out: Primary assay EC50 GIP-R (n1)): ≥ 19.6 nM; EC50 ([2]; tris-lipidated peptides, first replicate, read-out: Primary assay EC50 Gluc-R (n1)): ≥ 19.6 nM
5 | – | – | – | – | – | – | – | – | – | – | CC[C@H](C)[C@H](NC(=O)[C@H](Cc1ccccc1)NC(=O)[C@H](CCC(=O)O)NC(=O)[C@](C)(CCCCN)NC(=O)[C@H](C)NC(=O)[C@H](C)NC(=O)[C@H](CCC(=O)O)NC(=O)CNC(=O)[C@H](CCC(=O)O)NC(=O)[C@H](CC(C)C)NC(=O)[C@H](Cc1ccc(O)cc1)NC(=O)[C@H](CO)NC(=O)[C@H](CO)NC(=O)[C@H](CCCCNC(=O)COCCOCCNC(=O)COCCOCCNC(=O)CC[C@H](NC(=O)CCCCCCCCCCCCCCC(=O)O)C(=O)O)NC(=O)[C@H](CC(=O)O)NC(=O)[C@H](CO)NC(=O)[C@@H](NC(=O)[C@](C)(Cc1ccccc1)NC(=O)[C@H](CO)NC(=O)CNC(=O)[C@H](CCC(=O)O)NC(=O)C(C)(C)NC(=O)[C@@H](N)Cc1c[nH]cn1)[C@@H](C)O)C(=O)N[C@@H](C)C(=O)N[C@@H](CCCCNC(=O)COCCOCCNC(=O)COCCOCCNC(=O)CC[C@H](NC(=O)CCCCCCCCCCCCCCC(=O)O)C(=O)O)C(=O)N[C@H](C(=O)N[C@H](C(=O)N[C@@H](CCC(=O)O)C(=O)NCC(=O)NCC(N)=O)C(C)C)C(C)C [compound 260] (H-H[Aib]EGS[αMeF]TSDK([AEEA-AEEA-γGlu-C16 diacid])SSYLEGEAA[αMeK]EFIAK([AEEA-AEEA-γGlu-C16 diacid])VVEGG-NH2; N-terminus assumed) | EC50 ([1]; bis-lipidated peptides, first replicate, read-out: Primary assay EC50 GIP-R (n1)): ≥ 21.9 nM; EC50 ([2]; bis-lipidated peptides, first replicate, read-out: Primary assay EC50 Gluc-R (n1)): ≥ 21.9 nM; EC50 ([3]; bis-lipidated peptides, mean of n1 and n2, read-out: Primary assay EC50 Mean pM GLP-1R): 388 pM; EC50 ([3]; bis-lipidated peptides, replicate n1, read-out: Primary assay EC50 GLP-1R n1): 334 pM; EC50 ([3]; bis-lipidated peptides, replicate n2, read-out: Primary assay EC50 GLP-1R n2): 443 pM
6 | ≥ 28 | ≥ 28 | ≥ 28 | ≥ 28 | 66 | 140 | 101 | – | – | – | CCCCCCCCCCCCCCCC(=O)N[C@@H](CCC(=O)NCCCC[C@H](NC(=O)[C@H](CC(C)C)NC(=O)[C@](C)(Cc1ccccc1)NC(=O)[C@H](CO)NC(=O)[C@](C)(CO)NC(=O)[C@@H](NC(=O)[C@H](CC(=O)O)NC(=O)[C@H](CO)NC(=O)[C@@H](NC(=O)[C@](C)(Cc1ccccc1)NC(=O)[C@H](CO)NC(=O)CNC(=O)[C@H](CCC(=O)O)NC(=O)C(C)(C)NC(=O)[C@@H](N)Cc1c[nH]cn1)[C@@H](C)O)C(C)C)C(=O)NCC(=O)N[C@@H](CCC(=O)O)C(=O)N[C@@H](C)C(=O)N[C@@H](C)C(=O)N[C@@](C)(CCCCN)C(=O)N[C@@H](CCC(=O)O)C(=O)N[C@@](C)(Cc1ccccc1)C(=O)N[C@H](C(=O)N[C@@H](C)C(=O)N[C@@](C)(Cc1ccccc1)C(=O)N[C@H](C(=O)N[C@H](C(=O)N[C@@](C)(CCCCN)C(=O)NCC(=O)NCC(N)=O)C(C)C)C(C)C)[C@@H](C)CC)C(=O)O [compound 85] (H-H[Aib]EGS[αMeF]TSDV[αMeS]S[αMeF]LK([γGlu-Palmitoyl])GEAA[αMeK]E[αMeF]IA[αMeF]VV[αMeK]GG-NH2; N-terminus assumed) | –
